Data: ChEMBL document CHEMBL4834469, “Balancing Properties with Carboxylates: A Lead Optimization Campaign for Selective and Orally Active CDK9 Inhibitors” (ACS Med Chem Lett, 2021)

Tests used:
in vivo [1] = settings: rat, iv, 1 mg/kg
Description: Half life in rat at 1 mg/kg, iv

in vivo [2] = settings: rat, iv, 1 mg/kg; remark: listed apart in the source
Description: Volume of distribution at steady state in rat at 1 mg/kg, iv

in vivo [3] = settings: rat, po, 1 mg/kg
in vivo [4] = settings: rat, po, 1 mg/kg; remark: listed apart in the source
in vitro [5] = settings: human, plasma
Description: Plasma protein binding in human

in vitro [6] = settings: rat, plasma
Description: Plasma protein binding in rat

in vivo [7] = settings: Sprague-Dawley, rat, iv, 10 mg/kg
Description: Plasma concentration in anesthetized Sprague-Dawley rat upto 10 mg/kg, iv administered as single dose measured after 30 mins

NCI-H929 = test: cells; settings: Homo sapiens, NCI-H929, 24 h
Description: Antiproliferative activity against human NCI-H929 cells assessed as reduction in cell viability incubated for 24 hrs by Cell-Titer Glo assay

IC50 (NCI-H929) | SMILES | half-life (in vivo [1]) | Vd (in vivo [2]) | AUC (in vivo [3]) | bioavailability (in vivo [4]) | fraction unbound (in vitro [5]) | fraction unbound (in vitro [6]) | concentration at 0.5 h (in vivo [7])
 | COc1ccc(F)cc1-c1ccnc2[nH]c(C3=CCC(C(=O)O)CC3)cc12 (centres undefined) | 2.1 h | 0.51 L/kg | 3100 ng·h/mL | 70% | 0.002 | 0.004 | 
 | COc1ccc(F)cc1-c1ccnc2[nH]c(C3=CCC(N[C@@H](C(=O)O)C(C)C)CC3)cc12 (some centres undefined) | 0.68 h | 1 L/kg | < 10 ng·h/mL | 0.2% | 0.023 | 0.057 | 
 | COc1ccc(F)cc1-c1ccnc2[nH]c(C3=CCN([C@H]4CC[C@@H](CC(=O)O)CC4)CC3)cc12 | 1.7 h | 3.4 L/kg | 40 ng·h/mL | 7.9% | 0.036 | 0.183 | 
 | COc1ccc(F)cc1-c1ccnc2[nH]c(C3=CCN([C@H]4CC[C@H](CC(=O)O)CC4)CC3)cc12 | 2.8 h | 4.5 L/kg | 160 ng·h/mL | 21% | 0.037 | 0.087 | 
 | COc1ccc(F)cc1-c1c(F)cnc2[nH]c(C3=CCN([C@H]4CC[C@H](C(=O)O)CC4)CC3)cc12 | 3.5 h | 2.7 L/kg | 450 ng·h/mL | 28% | 0.059 | 0.106 | 9000 ng/mL
 | CCOC(=O)NS(=O)(=O)N1CC=C(c2cc3c(-c4cc(F)ccc4OC)ccnc3[nH]2)CC1 | 1.6 h | 0.29 L/kg | 2400 ng·h/mL | 64% | < 0.001 | 0.042 | 
 | COc1ccc(F)cc1-c1c(F)cnc2[nH]c(C3=CCN([C@H]4CC[C@@H](C(=O)O)CC4)CC3)cc12 | 3 h | 2.6 L/kg | 140 ng·h/mL | 13% | 0.066 | 0.099 | 
 | COc1ccc(F)cc1-c1c(F)cnc2[nH]c(C3=CCN([C@H]4CC[C@H](CC(=O)O)CC4)CC3)cc12 | 2.8 h | 2.9 L/kg | 140 ng·h/mL | 11% | 0.041 | 0.082 | 
 | COc1ccc(F)cc1-c1ccnc2[nH]c(C3=CCN([C@H]4CC[C@H](C(=O)O)CC4)CC3)cc12 | 3.3 h | 1.9 L/kg | 400 ng·h/mL | 23% | 0.079 | 0.09 | 5500 ng/mL
> 10000 nM | COc1ccc(F)cc1-c1ccnc2[nH]c(C3=CCN(c4ccc(CC(=O)O)cc4)CC3)cc12 |  |  |  |  |  |  | 
 | COc1ccc(F)cc1-c1ccnc2[nH]c(C3=CCN([C@H]4CC[C@@H](C(=O)O)CC4)CC3)cc12 | 3.2 h | 4.7 L/kg | 160 ng·h/mL | 20% | 0.074 | 0.16 | 
170 nM | COc1ccc(F)cc1-c1ccnc2[nH]c(C3=CCC(N4CCC(C(=O)O)CC4)CC3)cc12 (centres undefined) |  |  |  |  |  |  | 
